Measurements taken from patent publication US6395769B1, “2-arylbenzo[b]thiophenes useful for the treatment of estrogen deprivation syndrome” (Eli Lilly and Company, priority 1997, dated 2002).

Experiments:
[1] = system: bone mineral density; test: Osteoporosis model in ovariectomized rats, bone mineral density; format: in vivo, Sprague Dawley rats; details: OVX rats treated orally daily for 35 days, in 20% hydroxypropyl β-cyclodextrin; femur x-ray image analysis and tibia quantitative computed tomography
Description: Seventy-five day old female Sprague Dawley rats (weight range of 200 g to 225 g) are obtained from Charles River Laboratories (Portage, Mich.). The animals are either bilaterally ovariectomized (OVX) or exposed to a Sham surgical procedure at Charles River Laboratories, and then shipped after one week. Upon arrival, they are housed in metal hanging cages in groups of 3 or 4 per cage and have ad libitum access to food (calcium content approximately 0.5%) and water for one week. Room temperature is maintained at 22.2°±1.70° C. with a minimum relative humidity of 40%. The photoperiod in the room is 12 hours light and 12 hours dark.
Following the General Procedure, infra, the rats are treated daily for 35 days (6 rats per treatment group) and sacrificed by carbon dioxide asphyxiation on the 36th day. The 35 day time period is sufficient to allow maximal reduction in bone density, measured as described herein. At the time of sacrifice, the uteri are removed, dissected free of extraneous tissue, and the fluid contents are expelled before determination of wet weight in order to confirm estrogen deficiency associated with complete ovariectomy. […]
The right femurs are excised and digitilized x-rays generated and analyzed by an image analysis program (NIH image) at the distal metaphysis. The proximal aspect of the tibiae from these animals are also scanned by quantitative computed tomography.

For `COc1ccc(-c2cc3ccc(OC)cc3s2)cc1` [Example 1, 2-(4-Methoxyphenyl)-6-Methoxybenzo[b]thiophene], the melting point was 193 to 194 °C.

With `C#C[C@]1(O)CC[C@H]2[C@@H]3CCc4cc(O)ccc4[C@H]3CC[C@@]21C` [ethynyl estradiol, 17-α-ethynyl estradiol] the “loss of bone mineral density” value [1] was “a reduction in the loss of bone mineral density”.
